Columns and labels:
[1] = tested on: AChE of bovine erythrocytes; conditions: cited from earlier work
[2] = tested on: AChE from Electrophorus electricus (electric eel); conditions: cited from earlier work
[3] = tested on: AChE from human erythrocytes; conditions: cited from earlier work
electric eel AChE = molecular target: T1, electric eel AChE (Electrophorus electricus, UniProt O42275); test: Acetylcholinesterase (AChE) inhibition assay, Ellman method; format: biochemical; conditions: for inhibition at 4 µg/mL: read-out: Acetylcholinesterase inhibitory activity at 4 µg/mL; for inhibition at 20 µg/mL: read-out: Acetylcholinesterase inhibitory activity at 20 µg/mL; for inhibition at 100 µg/mL: read-out: Acetylcholinesterase inhibitory activity at 100 µg/mL; for inhibition at 500 µg/mL: read-out: Acetylcholinesterase inhibitory activity at 500 µg/mL
T1 construct: purchased Sigma-Aldrich
T1 sequence (O42275 24-633): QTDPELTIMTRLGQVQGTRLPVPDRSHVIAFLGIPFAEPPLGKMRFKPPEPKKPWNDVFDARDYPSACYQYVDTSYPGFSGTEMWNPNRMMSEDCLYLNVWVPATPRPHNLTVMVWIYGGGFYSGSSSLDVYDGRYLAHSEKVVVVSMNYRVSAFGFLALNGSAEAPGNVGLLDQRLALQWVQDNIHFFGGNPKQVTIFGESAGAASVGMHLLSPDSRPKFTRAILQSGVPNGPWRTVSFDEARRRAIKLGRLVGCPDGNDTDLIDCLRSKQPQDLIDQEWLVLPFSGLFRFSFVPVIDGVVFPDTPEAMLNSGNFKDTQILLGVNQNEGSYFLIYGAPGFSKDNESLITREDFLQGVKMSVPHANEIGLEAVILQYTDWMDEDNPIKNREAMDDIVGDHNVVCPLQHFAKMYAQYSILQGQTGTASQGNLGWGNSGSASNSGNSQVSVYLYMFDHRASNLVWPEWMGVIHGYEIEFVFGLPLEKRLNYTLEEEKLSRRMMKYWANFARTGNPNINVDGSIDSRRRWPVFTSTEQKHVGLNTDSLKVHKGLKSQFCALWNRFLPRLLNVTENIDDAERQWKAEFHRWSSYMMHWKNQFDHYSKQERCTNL
Method: Acetylcholinesterase (AChE) inhibitory activity of essential oil was determined according to the method described by Ellman and our previous study. The stock solution was obtained by dissolving the essential oil in DMSO (Merck), which was then diluted with H2O (deionized distilled water) to obtain different experimental concentrations. Each solution mixture consisted of 140 μL of phosphate buffer solution (pH: 8), 20 μL of essential oil at concentrations of 500, 100, 20, and 4 μg/mL, and 20 μL of the enzyme AChE (0.25 IU/mL, Sigma-Aldrich, St. Louis, MO, USA). The reaction mixtures were transferred to the test wells of a 96-well microtiter plate and incubated at 25 °C for 15 min. Then, solutions of 10 μL dithiobisnitrobenzoic acid (DTNB, 2.5 mM, Sigma-Aldrich) and 10 μL acetylthiocholine iodide (ACTI, 2.5 mM, Sigma-Aldrich) were added to each of the test wells and incubation continued for 10 min at 25 °C. […] Each test was carried out in triplicate.

AChE = conditions: cited from earlier work
[4] = IC50 (μM), IC50 ± standard deviation
[5] = IC50, IC50 ± standard deviation

| SMILES | IC50 (electric eel AChE; [4]) | IC50 (electric eel AChE; [5]) | inhibition at 4 µg/mL (electric eel AChE) | inhibition at 20 µg/mL (electric eel AChE) | inhibition at 100 µg/mL (electric eel AChE) | inhibition at 500 µg/mL (electric eel AChE) | IC50 (AChE) | also measured |
| --- | --- | --- | --- | --- | --- | --- | --- | --- |
| CC12CCC(CC1)C(C)(C)O2 [1,8-Cineole, reference compound] |  |  |  |  |  |  |  | IC50 [1]: 390 ± 60 µM; IC50 [2]: 6 µM |
| C=C1CCC=C(C)CCC2C1CC2(C)C (stereo not drawn) [(E)-β-Caryophyllene] | 436 ± 29.9 µM | 436 µM | 6.09% | 26.3% | 52.9% | 79% |  | IC50 [3]: 147 ± 15 µM; inhibition of AChE ([2]; concentration 0.06 mM): 32% |
| C=C1CC[C@H]2O[C@]2(C)CC[C@@H]2[C@@H]1CC2(C)C [Caryophyllene Oxide] | 1450 ± 61 µM | 1450 µM | -2.11% | 0.49% | 16.9% | 74% |  | AChE inhibition ([1]; 250 µg/mL): 35 ± 4.7%; AChE inhibition ([2]; 200 µg/mL): 41.46 ± 2.66% |
| C=C(C)C1CC=C(C)CC1 (stereo not drawn) [Limonene] | 390 ± 30 µM | 390 µM | 18.2% | 27% | 67.7% | 90.8% |  |  |
| CC1(C)C2CC=C(C=O)C1C2 (stereo not drawn) [Myrtenal] |  |  |  |  |  |  | 170 µM |  |
| C=C1CCC2(C(C)C)CC12 (stereo not drawn) [Sabinene] |  |  |  |  |  |  | 1300 ± 21 µM |  |
| C=C(C)C1CC=C(C)C(O)C1 (stereo not drawn) [trans-Carveol] | 676 µM | 676 µM | 1.19% | 16.8% | 55.3% | 76.9% |  |  |
| CC1=CCCC(C)=CCC(C)(C)C=CC1 [α-Humulene] | 785 ± 66 µM | 785 µM | 19.4% | 25.1% | 44.3% | 72.8% |  |  |
| CC1=CCC2CC1C2(C)C (stereo not drawn) [α-Pinene, reference compound] |  |  |  |  |  |  |  | IC50 [1]: 660 ± 40 µM |
| CC1=CC=C(C(C)C)CC1 [α-terpinene] |  |  |  |  |  |  | 1000 µM |  |
| CC1=CC[C@@H](C(C)(C)O)CC1 [α-terpineol] |  |  |  |  |  |  | 8400 ± 400 µM |  |
| C=C1CCC2CC1C2(C)C (stereo not drawn) [β-Pinene] | 525 ± 42.4 µM | 524 µM | 20.9% | 28.9% | 58.9% | 86.5% |  | IC50 [1]: ~1500 µM |

— article PMC9610647, “Acetylcholinesterase Inhibitory Activities of Essential Oils from Vietnamese Traditional Medicinal Plants” (Molecules, 2022)
